Molecules are shown by their SMILES.

This is an account of results in patent US12649980B2, “Three-dimensional surface for protein and small molecule microarrays” (The Johns Hopkins University, priority 2019, dated 2026).

One experiment deals with HeLa. Nature of the experiment: Alamar blue cell proliferation assay, HeLa. Type of experiment: cell-based, human. Particulars: 72 h, read-out: IC50 Assay B (Alamar blue cell proliferation). The protocol:
(§1) The effects of RgA on cell growth, survival, and cell death was then determined. […] Treatment with 5 μM of RgA caused an increase in G1 phase by approximately 23% in comparison to control and approximately 7% and 17% decreases in cells in S and G2/M phases, respectively. The induction in G1 phase cell cycle arrest by RgA is dose-dependent (FIG. 5A, FIG. 16). […] Jones and Thompson, Genes Dev. 2009, 23, 537-548. […] The IC50 values of RgA against several human cancer cell lines also was determined using the alamar blue cell proliferation assay.
(§2) Cells were seeded into a 96-well plate (Costar) in 180 μL culture media. After an overnight recovery, drugs were added and incubated for 72 h. After drug incubation, cells were added with 20 μL of alamar blue reagent and the plates were incubated at 37° C. for 6 h before reading the fluorescence (544 nm Ex/590 nm Em) with a plate reader. GraphPad Prism (v4.03) software was used to determine IC50 values using a four parameter logistic regression.
Background: Alamar Blue is a resazurin reagent that responds to reducing activity.

In the next experiment the test system is PANC10.05. Nature of the experiment: Alamar blue cell proliferation assay, PANC10.05. Particulars: PANC 10.05, 72 h; read-out: IC50 Assay B (Alamar blue cell proliferation). Type of experiment: cell-based, human. The protocol: as §1, §2
For a further experiment, the system named is PARP and caspase 7. Briefly: Western blot of apoptosis markers in MCF-7 cells. The experiment is classed as cell-based, human. Conditions: MCF-7, 5 μM, 72 h; inhibited by Z-VAD. As to the method: as §1
For western blot analysis, cells were harvested and lysed by RIPA buffer plus protease inhibitor. Cell lysates or samples from pull-down experiment were subjected to SDS/PAGE and then transferred to a nitrocellulose membrane. Membranes were first blocked in 5% (wt/vol) BSA in Tris-buffered saline plus 0.1% Tween 20 (TBST) at room temperature for 30 min and incubated with primary antibodies at 4° C. for overnight. Membranes were then washed three times with TBST and incubated with secondary antibodies at room temperature for another 1 h. Membranes were washed with TBST three times again and incubated with ECL substrate for 1 min at room temperature. Pictures were captured using a GeneSys Image Station.
(Immunoblotting shows a protein as a band on a membrane.)

Another experiment concerns RKO. Nature of the experiment: [3H]-2DG uptake assay in RKO cells. Type of experiment: cell-based, human. As to the method: Hay, Nat. Rev. […] To determine whether RgA could inhibit glucose uptake in cancer cell lines in addition to A549, the impact of RgA on [3H]-2DG uptake in six other cancer cell lines, including HCC1954, MCF-7, PANC10.05, Jurkat T, HeLa, and RKO was measured (FIG. 3A, Table 3).
(§3) The inhibitory activity of compounds on glucose transport was analyzed by measuring the cell uptake of [3H]-2DG as previously described. Ulanovskaya et al., Chem. Biol. 2011, 18, 222-230. Briefly, cells were washed twice and incubated in low-glucose medium for 10 min. Cells were added drugs and incubated for another 10 min before adding [3H]-2DG. After 10 min incubation with [3H]-2DG, cells were washed twice and lysed with 0.2 N NaOH plus 0.2% SDS. The cell lysate was transferred to a new tube containing 1 mL of optiphase supermix. Glucose uptake was quantified with a scintillation counter.

The next experiment relates to human red blood cells. Briefly: [3H]-2DG uptake in human red blood cells. Type of experiment: cell-based. Particulars: human red blood cells that exclusively express GLUT1; read-out: IC50 [3H]-2DG uptake into red blood cells. As to the method:
To determine which of the 17 rapafucin hits inhibited the transporter activity of GLUT1, an orthogonal glucose uptake assay using 2-deoxy-D-[3H] glucose ([3H]-2DG), a nonhydrolyzable, radioactive glucose analog, was employed. Each hit was separately incubated with A549 cells for 10 min before the amount of [3H]-2DG taken up by the cells was measured using scintillation counting. […] The effect of JW11-D2 on uptake of [3H]-2DG in human red blood cells that exclusively express GLUT1 was then determined. Helgerson and Carruthers, J. Biol. Chem. 1987, 262, 5464-5475. […] To further improve the potency of JW11-D2, a structure-activity relationship (SAR) study was performed by synthesizing 21 new analogs of JW11-D2 using different amino acid building blocks.
as §3

Another experiment relates to DLD1 GLUT1 KO. Briefly: [3H]-2DG uptake in DLD1 GLUT1 knockout cells. The experiment is classed as cell-based. As to the method:
as §3

Turning to `CCC(C)C1C(=O)NCC(=O)N(C)CCC=CC(=O)OCC(C)(C)C(=O)C(=O)N2CCCCC2C(=O)OC(CCc2ccc(OC)c(OC)c2)c2cccc(c2)NC(=O)CCC(=O)N(C)C(CC(C)C)C(=O)NC(Cc2ccccc2)C(=O)N1C` (stereo not shown) [JW11-D2, Rapaglutin A], the IC50 in the experiment with HeLa came out at 0.281 µM; in the experiment with PANC10.05, 0.119 µM; in the experiment with RKO, 0.0108 µM; in the experiment with human red blood cells, 0.0342 µM. For the same molecule, in the experiment on PARP and caspase 7, the “PARP and caspase 7 cleavage (apoptosis)” value is “resulted in poly(ADP-ribose) polymerase (PARP) and caspase 7 cleavage”. Besides, it took 0.0271 ± 0.0036 µM to reach a half-maximal effect in the experiment on DLD1 GLUT1 KO (DLD1 GLUT1 knockout) (EC50). Besides, the “inhibitory activity in GLUT1 knock out cells” value in the experiment with DLD1 GLUT1 KO (DLD-1 GLUT1 knock out versus wild type) is given as “retained its inhibitory activity”.

As a reminder, the EC50 is the concentration at which the effect is half-maximal. Higher therefore signals a need for much substance.
